Our source for the IC50 values is US7655629B2, “Peptides and their use for the treatment of HIV infections” (priority 2002, dated 2010).

In test [1] the test system is HIV-1 NL4-3 DTV. The conditions noted are these: read-out: IC50 DTV, P4-CCR5 cells, peptide 2 h before infection, readout three days after infection. In a few lines:
(§1)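 P4-CCR5 cells (CD4, CCR5, CXCR4, HIV-1 promoter-driven β-galactosidase) pretreated 2 h with peptide, then infected with virus containing 1 ng p24 antigen and incubated overnight. Cells washed and cultured without peptide; three days post-infection infectivity read by chemiluminescent β-galactosidase assay, in quintuplicate.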

Test [2] has as its system X4-tropic HIV-1 NL4-3. The conditions noted are these: read-out: IC50 NL4-3; P4-CCR5 cells, HIV-1 NL4-3, peptide 2 h before infection, readout three days after infection. In a few lines: as §1

Non-standard residues stand in square brackets, D forms with d. Residues, ends and D or L forms follow the SMILES beside them.

For orientation: IC50 means the concentration that gives 50% inhibition. For the molecule `CC[C@H](C)[C@H](NC(=O)[C@H](C)NC(=O)[C@H](CCC(=O)O)NC(=O)[C@@H](N)CC(C)C)C(=O)N1CCC[C@H]1C(=O)N[C@@H](CCSC)C(=O)N[C@@H](CO)C(=O)N[C@H](C(=O)N1CCC[C@H]1C(=O)N1CCC[C@@H]1C(=O)N[C@@H](CCC(=O)O)C(=O)N[C@H](C(=O)N[C@@H](CC(C)C)C(=O)N[C@@H](Cc1ccccc1)C(=O)NCC(=O)N[C@@H](CCCCN)C(=O)N1CCC[C@H]1C(=O)N[C@@H](Cc1ccccc1)C(=O)N[C@H](C(=O)N[C@@H](Cc1ccccc1)C(=O)O)C(C)C)C(C)C)[C@@H](C)CC` [VIR-191, LEAIPMSIPpEVLFGKPFVF] (H-LEAIPMSIP[dP]EVLFGKPFVF-OH), the IC50 in test [1] was found to be 560 nM; in test [2], 1790 nM.

Regarding `CC[C@H](C)[C@H](NC(=O)[C@H](C)NC(=O)[C@H](CCC(=O)O)NC(=O)[C@@H](N)CC(C)C)C(=O)N1CCC[C@H]1C(=O)N[C@@H](CCSC)C(=O)N[C@@H](CO)C(=O)N[C@H](C(=O)N1CCC[C@H]1C(=O)N1CCC[C@@H]1C(=O)N[C@@H](CCC(=O)O)C(=O)N[C@H](C(=O)N[C@@H](Cc1ccccc1)C(=O)N[C@@H](Cc1ccccc1)C(=O)NCC(=O)N[C@@H](CCCCN)C(=O)N1CCC[C@H]1C(=O)N[C@@H](Cc1ccccc1)C(=O)N[C@H](C(=O)N[C@@H](Cc1ccccc1)C(=O)O)C(C)C)C(C)C)[C@@H](C)CC` [VIR-192, LEAIPMSIPpEVFFGKPFVF] (H-LEAIPMSIP[dP]EVFFGKPFVF-OH), the figures for the IC50 in test [1] and in test [2] were 1210 nM and 1540 nM, respectively.

`CC[C@H](C)[C@H](NC(=O)[C@H](C)NC(=O)[C@H](CCC(=O)O)NC(=O)[C@@H](N)CC(C)C)C(=O)N1CCC[C@H]1C(=O)N[C@@H](CCSC)C(=O)N[C@@H](CO)C(=O)N[C@H](C(=O)N1CCC[C@H]1C(=O)N1CCC[C@@H]1C(=O)N[C@@H](CCC(=O)O)C(=O)N[C@@H](Cc1ccccc1)C(=O)N[C@@H](C)C(=O)N[C@@H](Cc1ccccc1)C(=O)N[C@@H](CC(N)=O)C(=O)N[C@@H](CCCCN)C(=O)N1CCC[C@H]1C(=O)N[C@@H](Cc1ccccc1)C(=O)N[C@H](C(=O)N[C@@H](Cc1ccccc1)C(=O)O)C(C)C)[C@@H](C)CC` [VIR-193, LEAIPMSIPpEFAFNKPFVF] (H-LEAIPMSIP[dP]EFAFNKPFVF-OH): the half-inhibitory concentration (IC50) in test [1] is 1380 nM; in test [2], 1740 nM.

As for `CC[C@H](C)[C@H](NC(=O)[C@H](C)NC(=O)[C@H](CCC(=O)O)NC(=O)[C@@H](N)CC(C)C)C(=O)N1CCC[C@H]1C(=O)N[C@@H](CCSC)C(=O)N[C@@H](CO)C(=O)N[C@H](C(=O)N1CCC[C@H]1C(=O)N1CCC[C@@H]1C(=O)N[C@@H](CCC(=O)O)C(=O)N[C@H](C(=O)N[C@@H](Cc1ccccc1)C(=O)N[C@@H](Cc1ccccc1)C(=O)N[C@@H](CC(N)=O)C(=O)N[C@@H](CCCCN)C(=O)N1CCC[C@H]1C(=O)N[C@@H](Cc1ccccc1)C(=O)N[C@H](C(=O)N[C@@H](Cc1ccccc1)C(=O)O)C(C)C)C(C)C)[C@@H](C)CC` [VIR-197, LEAIPMSIPpEVFFNKPFVF] (H-LEAIPMSIP[dP]EVFFNKPFVF-OH), the IC50 stood at 1440 nM in test [1] and 1270 nM in test [2].

For `CC[C@H](C)[C@H](NC(=O)[C@H](C)NC(=O)[C@H](CCC(=O)O)NC(=O)[C@@H](N)CC(C)C)C(=O)N1CCC[C@H]1C(=O)N[C@@H](CCSC)C(=O)N[C@@H](CO)C(=O)N[C@H](C(=O)N1CCC[C@H]1C(=O)N1CCC[C@@H]1C(=O)N[C@@H](CCC(=O)O)C(=O)N[C@@H](Cc1ccccc1)C(=O)N[C@@H](CC(C)C)C(=O)N[C@@H](Cc1ccccc1)C(=O)N[C@@H](CC(N)=O)C(=O)N[C@@H](CCCCN)C(=O)N1CCC[C@H]1C(=O)N[C@@H](Cc1ccccc1)C(=O)N[C@H](C(=O)N[C@@H](Cc1ccccc1)C(=O)O)C(C)C)[C@@H](C)CC` [VIR-199, LEAIPMSIPpEFLFNKPFVF] (H-LEAIPMSIP[dP]EFLFNKPFVF-OH), the results for the concentration for half-maximal inhibition (IC50) in test [1] and in test [2] were 1650 nM and 2140 nM, respectively.
